The results in this text go back to patent US8785457B2 (Cellzome Limited, priority 2009, dated 2014).

Read-outs that look alike come from different tables or passages of the source.

The target in one assay is T1, mTOR (Homo sapiens, UniProt P42345).
T1 construct: endogenous in cells; host or cells: Jurkat, clone E6-1 (ATCC TIB-152) cell lysate
Description: mTOR kinobeads assay (competitive binding in Jurkat cell lysate, immunodetection). In short, it runs like this:
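IC50 derived from dose-response curves of mTOR captured on immobilized phenylmorpholin-chromen beads, detected by antibody dot blot with infrared fluorescence.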

In another assay the target is T2, PI3Kalpha (PI3Ka) (Homo sapiens, UniProt P42336).
T2 construct: endogenous in cells; host or cells: cell lysate
T2 sequence (P42336 whole entry): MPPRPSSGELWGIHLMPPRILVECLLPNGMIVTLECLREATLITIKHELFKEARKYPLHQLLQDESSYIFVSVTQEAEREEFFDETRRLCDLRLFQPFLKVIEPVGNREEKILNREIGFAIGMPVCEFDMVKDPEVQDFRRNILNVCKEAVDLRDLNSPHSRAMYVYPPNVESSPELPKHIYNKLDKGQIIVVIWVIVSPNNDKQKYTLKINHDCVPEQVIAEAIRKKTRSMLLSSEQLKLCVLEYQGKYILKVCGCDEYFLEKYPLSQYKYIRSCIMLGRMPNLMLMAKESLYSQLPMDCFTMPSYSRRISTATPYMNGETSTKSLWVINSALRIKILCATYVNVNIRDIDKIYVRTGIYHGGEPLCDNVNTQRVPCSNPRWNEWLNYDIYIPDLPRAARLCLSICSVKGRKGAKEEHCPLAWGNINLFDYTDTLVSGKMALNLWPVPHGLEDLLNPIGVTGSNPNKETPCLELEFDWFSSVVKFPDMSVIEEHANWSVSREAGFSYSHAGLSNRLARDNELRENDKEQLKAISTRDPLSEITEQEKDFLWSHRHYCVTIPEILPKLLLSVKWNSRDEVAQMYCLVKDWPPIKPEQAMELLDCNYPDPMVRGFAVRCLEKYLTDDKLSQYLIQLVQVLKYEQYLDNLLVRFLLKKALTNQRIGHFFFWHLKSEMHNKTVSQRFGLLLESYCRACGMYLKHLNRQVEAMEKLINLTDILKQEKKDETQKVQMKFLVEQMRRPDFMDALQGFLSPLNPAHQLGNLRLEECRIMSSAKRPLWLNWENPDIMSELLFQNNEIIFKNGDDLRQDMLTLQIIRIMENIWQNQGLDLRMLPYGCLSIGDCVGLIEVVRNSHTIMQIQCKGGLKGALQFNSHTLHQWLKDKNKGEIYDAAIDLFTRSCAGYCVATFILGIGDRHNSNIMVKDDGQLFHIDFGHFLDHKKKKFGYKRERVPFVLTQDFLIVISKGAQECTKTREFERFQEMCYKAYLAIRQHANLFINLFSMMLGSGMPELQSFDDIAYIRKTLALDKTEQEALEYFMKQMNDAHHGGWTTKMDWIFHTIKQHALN
T2 sequence (P27986 whole entry partner): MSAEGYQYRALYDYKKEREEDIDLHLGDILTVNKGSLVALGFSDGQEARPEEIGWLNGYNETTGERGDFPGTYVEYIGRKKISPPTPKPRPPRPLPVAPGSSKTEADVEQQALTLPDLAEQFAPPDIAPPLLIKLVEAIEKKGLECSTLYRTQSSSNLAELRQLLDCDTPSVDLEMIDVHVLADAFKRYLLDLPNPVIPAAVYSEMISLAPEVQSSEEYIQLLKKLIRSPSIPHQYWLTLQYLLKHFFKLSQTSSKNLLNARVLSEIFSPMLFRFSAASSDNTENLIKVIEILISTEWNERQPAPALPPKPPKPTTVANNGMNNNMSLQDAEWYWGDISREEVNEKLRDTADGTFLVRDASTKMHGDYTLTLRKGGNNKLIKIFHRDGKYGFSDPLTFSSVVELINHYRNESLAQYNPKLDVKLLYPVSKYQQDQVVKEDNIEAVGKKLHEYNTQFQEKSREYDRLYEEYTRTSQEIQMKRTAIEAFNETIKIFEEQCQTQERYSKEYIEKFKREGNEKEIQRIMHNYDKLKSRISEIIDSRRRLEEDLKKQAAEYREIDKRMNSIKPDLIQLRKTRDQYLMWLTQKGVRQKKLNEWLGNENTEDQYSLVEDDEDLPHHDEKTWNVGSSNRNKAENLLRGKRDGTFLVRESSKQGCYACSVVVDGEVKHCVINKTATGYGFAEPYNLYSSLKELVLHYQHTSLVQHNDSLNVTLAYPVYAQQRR
Description: kinobeads assay, PI3Kalpha. The class given is binding. In short, it runs like this: (§1)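 Test compounds at various concentrations were added to cell lysate together with beads carrying an immobilized phenylmorpholin-chromen ligand, competing for kinase binding. Captured proteins were separated, eluted and quantified by multiplexed immunodetection; IC50 values came from dose-response curves for each kinase.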

In another assay the target is T3, PI3 Kbeta (PI3 Kb) (Homo sapiens, UniProt P42338).
T3 construct: endogenous in cells; host or cells: cell lysate
T3 sequence (P42338 whole entry): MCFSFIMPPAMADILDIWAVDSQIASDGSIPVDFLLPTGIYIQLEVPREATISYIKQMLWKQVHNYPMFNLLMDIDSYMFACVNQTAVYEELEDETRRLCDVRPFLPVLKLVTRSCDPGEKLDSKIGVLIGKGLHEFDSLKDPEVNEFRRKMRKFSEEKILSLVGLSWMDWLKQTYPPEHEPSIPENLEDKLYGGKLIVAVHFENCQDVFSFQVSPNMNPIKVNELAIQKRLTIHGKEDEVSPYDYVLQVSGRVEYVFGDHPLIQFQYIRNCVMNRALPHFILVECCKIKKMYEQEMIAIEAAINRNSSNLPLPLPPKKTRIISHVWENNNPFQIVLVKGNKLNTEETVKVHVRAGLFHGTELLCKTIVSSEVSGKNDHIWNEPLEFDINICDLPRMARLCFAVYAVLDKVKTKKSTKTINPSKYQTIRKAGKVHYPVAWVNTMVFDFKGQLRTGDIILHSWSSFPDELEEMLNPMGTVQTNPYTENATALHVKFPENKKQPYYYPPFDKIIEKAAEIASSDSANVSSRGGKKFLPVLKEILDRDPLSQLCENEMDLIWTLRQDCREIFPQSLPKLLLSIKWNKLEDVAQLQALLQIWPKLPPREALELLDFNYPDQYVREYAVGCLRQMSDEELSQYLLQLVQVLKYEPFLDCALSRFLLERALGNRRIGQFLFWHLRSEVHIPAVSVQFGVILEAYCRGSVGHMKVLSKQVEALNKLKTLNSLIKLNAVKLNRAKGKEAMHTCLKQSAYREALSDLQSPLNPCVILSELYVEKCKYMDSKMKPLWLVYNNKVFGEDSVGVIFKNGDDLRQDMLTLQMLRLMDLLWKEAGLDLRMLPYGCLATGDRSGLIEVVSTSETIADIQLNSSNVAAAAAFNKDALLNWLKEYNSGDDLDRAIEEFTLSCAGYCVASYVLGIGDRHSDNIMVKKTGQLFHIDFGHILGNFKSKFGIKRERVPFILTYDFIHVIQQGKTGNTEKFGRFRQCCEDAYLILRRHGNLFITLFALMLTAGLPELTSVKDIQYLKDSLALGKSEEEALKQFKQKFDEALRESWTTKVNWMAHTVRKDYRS
T3 sequence (P27986 whole entry partner): as the sequence (P27986 whole entry partner) above
Description: kinobeads assay, PI3Kbeta. In kind it is binding. The method in brief:
as §1

A further assay addresses T4, PI3 Kgamma (PI3 Kg) (Homo sapiens, UniProt P48736).
T4 construct: endogenous in cells; host or cells: cell lysate
Description: kinobeads assay, PI3Kgamma. The class given is binding. The method in brief: as §1

Where [1] appears, read: Further Kinobeads Data, read-out: mTor.
Where [2] appears, read: Further Kinobeads Data, read-out: PI3Kb.
The mark [3] stands for this setting: Further Kinobeads Data, read-out: PI3Kg.
Where [4] appears, read: kinobeads assay, Table 4, read-out: Inhibition values (IC50) mTor.
Where [5] appears, read: kinobeads assay, Table 6, read-out: Inhibition values (IC50) mTOR.
Setting [6] is: kinobeads assay, Table 6, read-out: Inhibition values (IC50) PI3Kb.
Where [7] appears, read: kinobeads assay, Table 6, read-out: Inhibition values (IC50) PI3Kg.
The mark [8] stands for this setting: Further Kinobeads Data, read-out: PI3Ka.

T4 sequence (P48736 whole entry): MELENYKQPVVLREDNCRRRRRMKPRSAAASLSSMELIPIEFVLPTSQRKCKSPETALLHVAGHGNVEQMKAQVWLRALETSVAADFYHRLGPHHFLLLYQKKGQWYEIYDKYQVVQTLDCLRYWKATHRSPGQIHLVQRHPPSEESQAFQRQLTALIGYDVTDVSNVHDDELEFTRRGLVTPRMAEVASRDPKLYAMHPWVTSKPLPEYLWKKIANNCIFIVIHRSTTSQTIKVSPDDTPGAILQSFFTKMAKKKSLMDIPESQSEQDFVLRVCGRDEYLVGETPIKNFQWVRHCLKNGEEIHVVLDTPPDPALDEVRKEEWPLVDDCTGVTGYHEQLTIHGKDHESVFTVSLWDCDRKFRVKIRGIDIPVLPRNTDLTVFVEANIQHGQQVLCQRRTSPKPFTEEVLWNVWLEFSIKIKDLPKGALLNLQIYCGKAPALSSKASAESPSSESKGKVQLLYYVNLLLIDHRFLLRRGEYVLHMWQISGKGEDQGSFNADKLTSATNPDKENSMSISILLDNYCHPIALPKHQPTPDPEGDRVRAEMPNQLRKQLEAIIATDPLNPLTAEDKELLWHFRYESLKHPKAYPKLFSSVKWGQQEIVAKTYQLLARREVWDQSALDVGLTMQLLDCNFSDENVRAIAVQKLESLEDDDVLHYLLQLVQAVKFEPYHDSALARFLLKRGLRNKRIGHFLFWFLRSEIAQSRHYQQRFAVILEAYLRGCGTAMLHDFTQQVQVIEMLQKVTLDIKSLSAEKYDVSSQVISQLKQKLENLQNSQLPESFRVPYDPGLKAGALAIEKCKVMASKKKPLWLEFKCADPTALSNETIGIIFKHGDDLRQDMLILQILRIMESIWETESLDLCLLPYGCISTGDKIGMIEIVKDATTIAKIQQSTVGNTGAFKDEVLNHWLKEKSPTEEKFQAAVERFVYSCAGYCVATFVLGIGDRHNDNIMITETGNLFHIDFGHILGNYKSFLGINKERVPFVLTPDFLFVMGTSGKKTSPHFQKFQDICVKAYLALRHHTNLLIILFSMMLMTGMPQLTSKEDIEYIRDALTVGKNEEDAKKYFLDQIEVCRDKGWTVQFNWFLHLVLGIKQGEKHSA

On to `C[C@H]1COCCN1c1nc(-c2ccc(NC(=O)NC3CC3)cc2F)nc2c1CCNC2` [Example 163, (S)-1-cyclopropyl-3-(3-fluoro-4-(4-(3-methylmorpholino)-5,6,7,8-tetrahydropyrido[3,4-d]pyrimidin-2-yl)phenyl)urea], for which the IC50 is less than 0.1 µM at mTOR (setting [1]), more than 10 µM at PI3 Kbeta (PI3 Kb) (setting [2]) and more than 10 µM at PI3 Kgamma (PI3 Kg) (setting [3]). At PI3Kalpha (PI3Ka) (Further Kinobeads Data), the PI3Ka result was “D (D >10 μM)”.
`CCOC(=O)N1Cc2nc(-c3ccc(NC(=O)NCCO)cc3F)nc(N3CCOC[C@@H]3C)c2C1` [Example 167, (S)-Ethyl 2-(2-fluoro-4-(3-(2-hydroxyethyl)ureido)phenyl)-4-(3-methylmorpholino)-5H-pyrrolo[3,4-d]pyrimidine-6(7H)-carboxylate]: the IC50 on mTOR (setting [1]) is less than 0.1 µM; on PI3 Kbeta (PI3 Kb) (setting [2]) it was 1 to 10 µM; on PI3 Kgamma (PI3 Kg) (setting [3]) it was more than 10 µM. The PI3Ka entry on PI3Kalpha (PI3Ka) (Further Kinobeads Data) is listed as “D (D >10 μM)”.
In the case of `CCNC(=O)Nc1ccc(-c2nc3c(c(N4CCOC[C@@H]4C)n2)CCN(C)C3)cc1` [Example 35, (S)-1-ethyl-3-(4-(7-methyl-4-(3-methylmorpholino)-5,6,7,8-tetrahydropyrido[3,4-d]pyrimidin-2-yl)phenyl)urea], the IC50 at mTOR (setting [4]) is less than 0.1 µM; at mTOR (setting [5]) it was less than 0.1 µM; on PI3 Kbeta (PI3 Kb) (setting [6]), more than 10 µM; on PI3 Kgamma (PI3 Kg) (setting [7]) it was more than 10 µM. Further, the “Inhibition values (IC50) PI3Ka” value at PI3Kalpha (PI3Ka) (kinobeads assay, Table 6) is given as “D (D >10 μM)”.
`C[C@H]1COCCN1c1nc(-c2ccc(NC(=O)NC3CC3)cc2)nc2c1CN(CC(C)(C)C)C2` [Example 25, (S)-1-cyclopropyl-3-(4-(4-(3-methylmorpholino)-6-neopentyl-6,7-dihydro-5H-pyrrolo[3,4-d]pyrimidin-2-yl)phenyl)urea]: the IC50 at mTOR (setting [4]) was 0.1 to 1 µM; on mTOR (setting [5]), 0.1 to 1 µM; at PI3 Kbeta (PI3 Kb) (setting [6]) it was more than 10 µM; at PI3 Kgamma (PI3 Kg) (setting [7]), more than 10 µM. In addition, on PI3Kalpha (PI3Ka) (kinobeads assay, Table 6), the “Inhibition values (IC50) PI3Ka” value was “D (D >10 μM)”.
`CCOC(=O)N1Cc2nc(-c3ccc(NC(=O)NCCF)cc3F)nc(N3CCOC[C@@H]3C)c2C1` [Example 168, (S)-ethyl 2-(2-fluoro-4-(3-(2-fluoroethyl)ureido)phenyl)-4-(3-methylmorpholino)-5H-pyrrolo[3,4-d]pyrimidine-6(7H)-carboxylate]: the IC50 is less than 0.1 µM at mTOR (setting [1]), 1 to 10 µM on PI3Kalpha (PI3Ka) (setting [8]), more than 10 µM on PI3 Kbeta (PI3 Kb) (setting [2]) and more than 10 µM on PI3 Kgamma (PI3 Kg) (setting [3]).
On to `CN1Cc2nc(-c3ccc(NC(=O)NC4CC4)cc3F)nc(N3CCOCC3)c2C1` [Example 159, 1-(Cyclopropyl)-3-(3-fluoro-4-(6-methyl-4-morpholino-6,7-dihydro-5H-pyrrolo[3,4-d]pyrimidin-2-yl)phenyl)urea], for which the IC50 on mTOR (setting [1]) is 0.1 to 1 µM; on PI3Kalpha (PI3Ka) (setting [8]), 1 to 10 µM; at PI3 Kbeta (PI3 Kb) (setting [2]), more than 10 µM; at PI3 Kgamma (PI3 Kg) (setting [3]) it was more than 10 µM.
`CC(C)CN1CCc2c(nc(-c3ccc(NC(=O)NC4CC4)cc3)nc2N2CCOC[C@@H]2C)C1` [Example 42, (S)-1-cyclopropyl-3-(4-(7-isobutyl-4-(3-methylmorpholino)-5,6,7,8-tetrahydropyrido[3,4-d]pyrimidin-2-yl)phenyl)urea]: the IC50 at mTOR (setting [4]) was less than 0.1 µM; on mTOR (setting [5]) it was less than 0.1 µM; at PI3 Kbeta (PI3 Kb) (setting [6]), more than 10 µM; at PI3 Kgamma (PI3 Kg) (setting [7]), more than 10 µM. At PI3Kalpha (PI3Ka) (kinobeads assay, Table 6), the “Inhibition values (IC50) PI3Ka” value is “D (D >10 μM)”.
As for `COC(=O)N1Cc2nc(-c3ccc(NC(=O)NC4CC4)cc3F)nc(N3CCOCC3)c2C1` [Example 173, Methyl 2-(4-(3-cyclopropylureido)-2-fluorophenyl)-4-morpholino-5H-pyrrolo[3,4-d]pyrimidine-6(7H)-carboxylate], the IC50 is less than 0.1 µM on mTOR (setting [1]), more than 10 µM on PI3 Kbeta (PI3 Kb) (setting [2]) and more than 10 µM on PI3 Kgamma (PI3 Kg) (setting [3]). Moreover, the PI3Ka entry on PI3Kalpha (PI3Ka) (Further Kinobeads Data) is “D (D >10 μM)”.
With `C[C@H]1COCCN1c1nc(-c2ccc(NC(=O)NC3CC3)cc2F)nc2c1CN(C)C2` [Example 147, (S)-1-cyclopropyl-3-(3-fluoro-4-(6-methyl-4-(3-methylmorpholino)-6,7-dihydro-5H-pyrrolo[3,4-d]pyrimidin-2-yl)phenyl)urea], the IC50 on mTOR (setting [1]) is less than 0.1 µM; on PI3 Kbeta (PI3 Kb) (setting [2]) it was more than 10 µM; at PI3 Kgamma (PI3 Kg) (setting [3]), more than 10 µM. Further, on PI3Kalpha (PI3Ka) (Further Kinobeads Data), the PI3Ka entry is “D (D >10 μM)”.
Consider `C[C@@H]1COCCN1c1nc(-c2ccc(NC(=O)NC3CC3)cc2F)nc2c1CN(S(C)(=O)=O)C2` [Example 191, (R)-1-cyclopropyl-3-(3-fluoro-4-(4-(3-methylmorpholino)-6-(methylsulfonyl)-6,7-dihydro-5H-pyrrolo[3,4-d]pyrimidin-2-yl)phenyl)urea], for which the IC50 at mTOR (setting [1]) was 0.1 to 1 µM; at PI3 Kbeta (PI3 Kb) (setting [2]), more than 10 µM; on PI3 Kgamma (PI3 Kg) (setting [3]), more than 10 µM. Besides, the PI3Ka result at PI3Kalpha (PI3Ka) (Further Kinobeads Data) was “D (D >10 μM)”.
For `CC(C)N1Cc2nc(-c3ccc(NC(=O)NCCF)cc3F)nc(N3CCOCC3)c2C1` [Example 185, 1-(3-fluoro-4-(6-isopropyl-4-morpholino-6,7-dihyro-5H-pyrrolo[3,4-d]pyrimidin-2-yl)phenyl)-3-(2-fluoroethyl)urea], the IC50 at mTOR (setting [1]) is less than 0.1 µM; on PI3Kalpha (PI3Ka) (setting [8]), 1 to 10 µM; at PI3 Kbeta (PI3 Kb) (setting [2]), more than 10 µM; at PI3 Kgamma (PI3 Kg) (setting [3]), more than 10 µM.
Turning to `C[C@@H]1COCCN1c1nc(-c2ccc(NC(=O)NC3CC3)cc2F)nc2c1CN(C=O)C2` [Example 190, (R)-1-cyclopropyl-3-(3-fluoro-4-(6-formyl-4-(3-methylmorpholino)-6,7-dihydro-5H-pyrrolo[3,4-d]pyrimidin-2-yl)phenyl)urea], the IC50 at mTOR (setting [1]) is less than 0.1 µM; at PI3 Kbeta (PI3 Kb) (setting [2]), more than 10 µM; at PI3 Kgamma (PI3 Kg) (setting [3]) it was more than 10 µM. In addition, the PI3Ka result at PI3Kalpha (PI3Ka) (Further Kinobeads Data) is on record as “D (D >10 μM)”.
Turning to `COC(=O)N1Cc2nc(-c3ccc(NC(=O)NC4CC4)cc3F)nc(N3CCOC[C@@H]3C)c2C1` [Example 146, (S)-methyl 2-(4-(3-cyclopropylureido)-2-fluorophenyl)-4-(3-methylmorpholino)-5H-pyrrolo[3,4-d]pyrimidine-6(7H)-carboxylate], the IC50 at mTOR (setting [1]) is 0.1 to 1 µM; at PI3 Kbeta (PI3 Kb) (setting [2]) it was more than 10 µM; on PI3 Kgamma (PI3 Kg) (setting [3]), more than 10 µM. Further, the PI3Ka result at PI3Kalpha (PI3Ka) (Further Kinobeads Data) is “D (D >10 μM)”.
Take `CCNC(=O)Nc1ccc(-c2nc3c(c(N4CCOC[C@@H]4C)n2)CN(CC2CC2)C3)cc1` [Example 28, (S)-1-(4-(6-(cyclopropylmethyl)-4-(3-methylmorpholino)-6,7-dihydro-5H-pyrrolo[3,4-d]pyrimidin-2-yl)phenyl)-3-ethylurea]: the IC50 on mTOR (setting [4]) is less than 0.1 µM; on mTOR (setting [5]), less than 0.1 µM; at PI3 Kbeta (PI3 Kb) (setting [6]), more than 10 µM; on PI3 Kgamma (PI3 Kg) (setting [7]) it was more than 10 µM. Further, the “Inhibition values (IC50) PI3Ka” value at PI3Kalpha (PI3Ka) (kinobeads assay, Table 6) was “D (D >10 μM)”.
Consider `CCNC(=O)Nc1ccc(-c2nc3c(c(N4CCOC[C@@H]4C)n2)CN(C)C3)c(F)c1` [Example 160, (S)-1-ethyl-3-(3-fluoro-4-(6-methyl-4-(3-methylmorpholino)-6,7-dihydro-5H-pyrrolo[3,4-d]pyrimidin-2-yl)phenyl)urea], for which the IC50 on mTOR (setting [1]) is less than 0.1 µM; on PI3 Kbeta (PI3 Kb) (setting [2]), more than 10 µM; on PI3 Kgamma (PI3 Kg) (setting [3]), more than 10 µM. Besides, the PI3Ka entry on PI3Kalpha (PI3Ka) (Further Kinobeads Data) was “D (D >10 μM)”.
`CCNC(=O)Nc1ccc(-c2nc3c(c(N4CCOC[C@@H]4C)n2)CN(C(=O)C2CC2)C3)cc1` [Example 23, (S)-1-(4-(6-(cyclopropanecarbonyl)-4-(3-methylmorpholino)-6,7-dihydro-5H-pyrrolo[3,4-d]pyrimidin-2-yl)phenyl)-3-ethylurea]: the IC50 on mTOR (setting [4]) is less than 0.1 µM; at mTOR (setting [5]), less than 0.1 µM; at PI3Kalpha (PI3Ka) (kinobeads assay, Table 6, read-out: Inhibition values (IC50) PI3Ka) it was 1 to 10 µM; at PI3 Kbeta (PI3 Kb) (setting [6]) it was more than 10 µM; at PI3 Kgamma (PI3 Kg) (setting [7]), more than 10 µM.
In the case of `COC(=O)N1Cc2nc(-c3ccc(NC(=O)NCCO)cc3F)nc(N3CCOC[C@@H]3C)c2C1` [Example 181, (S)-methyl 2-(2-fluoro-4-(3-(2-hydroxyethyl)ureido)phenyl)-4-(3-methylmorpholino)-5H-pyrrolo[3,4-d]pyrimidine-6(7H)-carboxylate], the IC50 on mTOR (setting [1]) was less than 0.1 µM; on PI3 Kbeta (PI3 Kb) (setting [2]) it was more than 10 µM; on PI3 Kgamma (PI3 Kg) (setting [3]), more than 10 µM. Also, the PI3Ka entry on PI3Kalpha (PI3Ka) (Further Kinobeads Data) is “D (D >10 μM)”.
Consider `CCNC(=O)Nc1ccc(-c2nc3c(c(N4CCOC[C@@H]4C)n2)CCN(CC2CC2)C3)cc1` [Example 37, (S)-1-(4-(7-(cyclopropylmethyl)-4-(3-methylmorpholino)-5,6,7,8-tetrahydropyrido[3,4-d]pyrimidin-2-yl)phenyl)-3-ethylurea], for which the IC50 on mTOR (setting [4]) was less than 0.1 µM; at mTOR (setting [5]), less than 0.1 µM; at PI3 Kbeta (PI3 Kb) (setting [6]), more than 10 µM; at PI3 Kgamma (PI3 Kg) (setting [7]), more than 10 µM. Further, the “Inhibition values (IC50) PI3Ka” value on PI3Kalpha (PI3Ka) (kinobeads assay, Table 6) was “D (D >10 μM)”.
Consider `CCNC(=O)Nc1ccc(-c2nc3c(c(N4CCOC[C@@H]4C)n2)CCN(C(=O)N(C)C)C3)c(F)c1` [Example 176, (S)-2-(4-(3-ethylureido)-2-fluorophenyl)-N,N-dimethyl-4-(3-methylmorpholino)-5,6-dihydropyrido[3,4-d]pyrimidine-7(8H)-carboxamide], for which the IC50 is less than 0.1 µM at mTOR (setting [1]), 1 to 10 µM at PI3Kalpha (PI3Ka) (setting [8]), 1 to 10 µM at PI3 Kbeta (PI3 Kb) (setting [2]) and 1 to 10 µM on PI3 Kgamma (PI3 Kg) (setting [3]).
As to `CCOC(=O)N1Cc2nc(-c3ccc(NC(=O)NC4CC4)cc3F)nc(N3CCOCC3)c2C1` [Example 156, Ethyl 2-(4-(3-cyclopropylureido)-2-fluorophenyl)-4-morpholino-5H-pyrrolo[3,4-d]pyrimidine-6(7H)-carboxylate], the IC50 at mTOR (setting [1]) is less than 0.1 µM; at PI3 Kbeta (PI3 Kb) (setting [2]), more than 10 µM; at PI3 Kgamma (PI3 Kg) (setting [3]) it was more than 10 µM. Moreover, the PI3Ka entry at PI3Kalpha (PI3Ka) (Further Kinobeads Data) is recorded as “D (D >10 μM)”.
